Laboratory results taken from patent US7427418B2, “Phloridzin-rich phenolic fraction and use thereof as a cosmetic, dietary or nutraceutical agent” (Diana Ingredients S.A., priority 2001, dated 2008).

Columns and labels:
[1] = Water solubility of the powder; format: physicochemical; settings: in words
[2] = system: plasmid DNA damaged by OH° radical (hydrogen peroxide + UVB); test: "3D" test (Damaged DNA Detection): protection of DNA against OH° radicals; format: biochemical; settings: for Specific protection: OH° radical
Experimental: The free-radical-scavenging effects of the phloridzin-rich polyphenolic fractions obtained according to the process of the invention were measured in vitro by the “3D” test (Damaged DNA Detection, Analytical Biochemistry, (1995), pp. 37-42).
The principle is based on repairing DNA lesions, the damaged DNA being used as a marker of protective efficacy of the test molecules with respect to free OH^∘ radicals: the reduction in lesions observed on the DNA is correlated with the trapping of the free radicals.
This test carried out on plasmid DNA allows the detection of genotoxic agents at the early stage of the lesion-mutation-cancerization process. Molecules or mixtures with antioxidant or free-radical-scavenging properties, which can thus protect a human cell from oxidative damage caused by reactive oxygenated species (ROSs), can thus be detected.
The protocol was as follows: • the target DNA was adsorbed onto sensitized wells and then incubated with genotoxic agents in the presence or absence of the polyphenolic extract to be tested (dissolved in an ethanol solution at 2% or in DMSO) or in the presence of catechin (control). In this test, the OH^∘ radical produced by homolytic cleavage of hydrogen peroxide was used as DNA-damaging genotoxic agent. The hydrogen peroxide was added to the wells, which were then irradiated with UVB rays (700 J/m^2). Furthermore, a positive repair control consisting of a plasmid DNA predamaged with ultraviolet C radiation was added; • a step of washing with ultrapure water and then with a dioxane solution at 20% in ultrapure water for 5 minutes at 30° C. with gentle stirring made it possible to remove the non-specific interactions between the sample and the test, due to the presence of macromolecules such as proteins that may interfere with the repair signal; • a repair step was performed in the presence of purified cell extracts (which contain the active enzymes of the various DNA lesion repair pathways) and of biotin-coupled modified nucleotides (dUTP). The repair of the lesions involved a phase of excision of the lesions followed by a resynthesis of the DNA fragment or of excised bases. […] The light signal observed and read on the luminometer was proportional to the amount of lesions repaired.
The percentage of protection observed in the presence of ROSs was calculated as the relative reduction of the lesional effect due to the OH^∘ species, that is to say: % protection={[RLU oxidant−RLU (oxidant+sample)]/RLU oxidant}×100 • where RLU=relative light units (arbitrary units of quantity of light).
The specific percentage of protection was corrected by the percentage of non-specific inhibition measured on the samples predamaged with UVC. It is an indication of the free-radical-scavenging activity due to the only added extracts.
The IC50 is the concentration in mg/ml of test product which gives 50% protective activity against the genotoxic agent OH^∘. The lower the value, the greater the antioxidant activity of the test product.

| Compound | Water solubility [1] | Specific protection ([2]; concentration 0.016 mg/ml) [%] | Specific protection ([2]; concentration 0.06 mg/ml) [%] | Specific protection ([2]; concentration 0.25 mg/ml) [%] | Specific protection ([2]; concentration 1 mg/ml) [%] | IC50 ([2]; concentration giving 50% protective activity against the genotoxic agent OH°) [µg/mL] |
| --- | --- | --- | --- | --- | --- | --- |
| O=C(CCc1ccc(O)cc1)c1c(O)cc(O)cc1O [phloretin] | very low solubility | – | – | – | – | – |
| Catechin | – | 16 | 28 | 52 | 65 | 240 |
